# Reference: patent publication US6737383B1, “Herbicidal oxadiazolidines” (priority 1999, dated 2004)
# Key:
# [1] = system: rice; test: Test B flood test rice; assay type: in vivo, Oryza sativa
# Method in brief: (§1)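 Each value is a visual injury score relative to controls, with 10 meaning complete control and 0 no effect. Evaluation took place twelve to sixteen days after the 2-leaf-stage plants were treated and kept in the greenhouse.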
# [2] = system: surinam grass; test: Test B pre/postemergence surinam grass; assay type: in vivo, Brachiaria decumbens
# Method in brief: (§2)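 Response is a visual 0-to-10 score relative to untreated plants, where 0 means no effect and 10 means complete control, taken twelve to sixteen days after application. Treatments went onto soil at planting and onto foliage of 1- to 4-leaf plants, using a surfactant-containing non-phytotoxic solvent.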
# [3] = system: cocklebur; test: Test B pre/postemergence cocklebur; assay type: in vivo, Xanthium strumarium
# Method in brief: as §2
# [4] = system: wild oat; test: Test B pre/postemergence wild oat; assay type: in vivo, Avena fatua
# Method in brief: as §2
# [5] = system: bamyardgrass; test: Test B flood test barnyardgrass; assay type: in vivo, Echinochloa crus-galli
# Method in brief: as §1
# [6] = system: purple nutsedge; test: Test B pre/postemergence purple nutsedge; assay type: in vivo, Cyperus rotundus
# Method in brief: as §2
# [7] = system: blackgrass; test: Test B pre/postemergence blackgrass; assay type: in vivo, Alopecurus myosuroides
# Method in brief: as §2
# [8] = system: morningglory; test: Test B pre/postemergence morningglory; assay type: in vivo, Ipomoea hederacea
# Method in brief: as §2
# [9] = system: soybean; test: Test B pre/postemergence soybean; assay type: in vivo, Glycine max
# Method in brief: as §2
# [10] = system: pigweed; test: Test B pre/postemergence pigweed; assay type: in vivo, Amaranthus retroflexus
# Method in brief: as §2
# [11] = system: bedstraw; test: Test B pre/postemergence bedstraw; assay type: in vivo, Galium aparine; conditions: Preemergence
# Method in brief: as §2
# [12] = system: giant foxtail; test: Test B pre/postemergence giant foxtail; assay type: in vivo, Setaria faberii
# Method in brief: as §2
# [13] = system: velvetleaf; test: Test B pre/postemergence velvetleaf; assay type: in vivo, Abutilon theophrasti
# Method in brief: as §2
# [14] = system: smallflower flatsedge; test: Test B flood test smallflower flatsedge; assay type: in vivo, Cyperus difformis
# Method in brief: as §1
# [15] = system: crabgrass; test: Test B pre/postemergence crabgrass; assay type: in vivo, Digitaria sanguinalis
# Method in brief: as §2
# [16] = system: wheat; test: Test B pre/postemergence wheat; assay type: in vivo, Triticum aestivum
# Method in brief: as §2
# [17] = Rate 62 g/ha, flood test species, Pre-emergence, visual evaluation after twelve to sixteen days
# [18] = Rate 125 g/ha, under heading Pre-emergence, flood test species, visual evaluation after twelve to sixteen days
# [19] = Rate 250 g/ha, Pre-emergence (flood test species), scale 0 to 10, 0 is no effect, 10 is complete control
# [20] = Rate 500 g/ha, Pre-emergence section of Table B, 0 to 10 scale (0 no effect, 10 complete control)
# [21] = Postemergence, Rate 62 g/ha, scale 0 to 10, 0 is no effect, 10 is complete control
# [22] = Postemergence, Rate 125 g/ha, scale of 0 to 10 where 0 is no effect and 10 is complete control
# [23] = Postemergence, Rate 250 g/ha, scale of 0 to 10, 0 is no effect, 10 is complete control
# [24] = Preemergence, Rate 62 g/ha, scale of 0 to 10 where 0 is no effect and 10 is complete control
# [25] = Preemergence, Rate 125 g/ha, scale of 0 to 10 where 0 is no effect and 10 is complete control
# [26] = Preemergence, Rate 250 g/ha, scale 0 to 10 (0 no effect, 10 complete control)
# [27] = Preemergence, Rate 500 g/ha, scale of 0 to 10 where 0 is no effect and 10 is complete control
# [28] = Rate 500 g/ha, Postemergence, scale 0 to 10, 0 is no effect, 10 is complete control
smiles,measurement,setting,value
C=C(Cn1c(=O)on(C(=O)N(c2ccccc2)C(C)C)c1=O)C(C)C [Compound 649],"Plant response rating, Rice (0 to 10 scale, 0 is no effect, 10 is complete control)",[1]; [17],0
same,"Rice plant response rating (0 to 10 scale, 0 is no effect, 10 is complete control)",[1]; [18],0
same,Rice plant response rating,[1]; [19],0
same,Rice plant response rating,[1]; [20],0
same,"Plant response rating, B. signalgrass",[2]; [21],0
same,"Plant response rating, B. signalgrass",[2]; [22],0
same,B. signalgrass plant response rating,[2]; [23],0
same,B. signalgrass plant response rating,[2]; [24],0
same,B. signalgrass plant response rating,[2]; [25],0
same,"Plant response rating, B. signalgrass",[2]; [26],0
same,"Plant response rating, B. signalgrass",[2]; [27],0
same,B. signalgrass plant response rating,[2]; [28],0
same,"Plant response rating, Cocklebur",[3]; [21],0
same,Cocklebur plant response rating,[3]; [22],0
same,Cocklebur plant response rating,[3]; [23],0
same,Cocklebur plant response rating,[3]; [24],0
same,Cocklebur plant response rating,[3]; [25],0
same,"Plant response rating, Cocklebur",[3]; [26],0
same,"Plant response rating, Cocklebur",[3]; [27],0
same,Cocklebur plant response rating,[3]; [28],2
same,"Plant response rating, Wild oats",[4]; [21],0
same,Wild oats plant response rating,[4]; [22],0
same,Wild oats plant response rating,[4]; [24],0
same,Wild oats plant response rating,[4]; [25],0
same,"Plant response rating, Wild oats",[4]; [26],0
same,"Plant response rating, Wild oats",[4]; [27],0
same,Wild oats plant response rating,[4]; [28],0
same,"Plant response rating, Barnyardgrass (0 to 10 scale, 0 is no effect, 10 is complete control)",[5]; [17],0
same,"Barnyardgrass plant response rating (0 to 10 scale, 0 is no effect, 10 is complete control)",[5]; [18],0
same,Barnyardgrass plant response rating,[5]; [19],0
same,Barnyardgrass plant response rating,[5]; [20],2
same,"Plant response rating, Nutsedge",[6]; [21],0
same,Nutsedge plant response rating,[6]; [22],0
same,Nutsedge plant response rating,[6]; [24],0
same,Nutsedge plant response rating,[6]; [25],0
same,"Plant response rating, Nutsedge",[6]; [26],0
same,"Plant response rating, Nutsedge",[6]; [27],0
same,Nutsedge plant response rating,[6]; [28],0
same,"Plant response rating, Blackgrass",[7]; [21],0
same,Blackgrass plant response rating,[7]; [22],0
same,Blackgrass plant response rating,[7]; [23],0
same,Blackgrass plant response rating,[7]; [24],0
same,Blackgrass plant response rating,[7]; [25],0
same,"Plant response rating, Blackgrass",[7]; [26],0
same,"Plant response rating, Blackgrass",[7]; [27],0
same,Blackgrass plant response rating,[7]; [28],0
same,"Plant response rating, Morningglory",[8]; [21],4
same,Morningglory plant response rating,[8]; [22],7
same,Morningglory plant response rating,[8]; [23],7
same,Morningglory plant response rating,[8]; [24],0
same,Morningglory plant response rating,[8]; [25],0
same,"Plant response rating, Morningglory",[8]; [26],0
same,"Plant response rating, Morningglory",[8]; [27],0
same,Morningglory plant response rating,[8]; [28],8
same,"Plant response rating, Soybean",[9]; [21],2
same,Soybean plant response rating,[9]; [22],2
same,Soybean plant response rating,[9]; [24],0
same,Soybean plant response rating,[9]; [25],0
same,"Plant response rating, Soybean",[9]; [26],0
same,"Plant response rating, Soybean",[9]; [27],0
same,Soybean plant response rating,[9]; [28],3
same,"Plant response rating, Redroot pigweed",[10]; [21],0
same,Redroot pigweed plant response rating,[10]; [22],0
same,Redroot pigweed plant response rating,[10]; [24],0
same,Redroot pigweed plant response rating,[10]; [25],0
same,"Plant response rating, Redroot pigweed",[10]; [26],0
same,"Plant response rating, Redroot pigweed",[10]; [27],0
same,Redroot pigweed plant response rating,[10]; [28],0
same,Bedstraw plant response rating,"[11]; Rate 62 g/ha, scale of 0 to 10 where 0 is no effect and 10 is complete control",0
same,Bedstraw plant response rating,"[11]; Rate 125 g/ha, scale of 0 to 10 where 0 is no effect and 10 is complete control",0
same,"Plant response rating, Bedstraw","[11]; Rate 250 g/ha, scale 0 to 10 (0 no effect, 10 complete control)",0
same,"Plant response rating, Bedstraw","[11]; Rate 500 g/ha, scale of 0 to 10 where 0 is no effect and 10 is complete control",0
same,"Plant response rating, Giant foxtail",[12]; [21],0
same,Giant foxtail plant response rating,[12]; [22],2
same,Giant foxtail plant response rating,[12]; [23],2
same,Giant foxtail plant response rating,[12]; [24],0
same,"Plant response rating, Giant foxtail",[12]; [26],9
same,"Plant response rating, Giant foxtail",[12]; [27],9
same,Giant foxtail plant response rating,[12]; [28],7
same,"Plant response rating, Velvetleaf",[13]; [21],0
same,Velvetleaf plant response rating,[13]; [22],0
same,Velvetleaf plant response rating,[13]; [24],0
same,Velvetleaf plant response rating,[13]; [25],0
same,"Plant response rating, Velvetleaf",[13]; [26],0
same,"Plant response rating, Velvetleaf",[13]; [27],0
same,Velvetleaf plant response rating,[13]; [28],0
same,"Plant response rating, S. Flatsedge (0 to 10 scale, 0 is no effect, 10 is complete control)",[14]; [17],0
same,"S. Flatsedge plant response rating (0 to 10 scale, 0 is no effect, 10 is complete control)",[14]; [18],0
same,S. Flatsedge plant response rating,[14]; [19],0
same,S. Flatsedge plant response rating,[14]; [20],0
same,"Plant response rating, Crabgrass",[15]; [21],0
same,Crabgrass plant response rating,[15]; [22],2
same,Crabgrass plant response rating,[15]; [24],0
same,Crabgrass plant response rating,[15]; [25],1
same,"Plant response rating, Crabgrass",[15]; [26],5
same,"Plant response rating, Crabgrass",[15]; [27],9
same,"Plant response rating, Wheat",[16]; [21],0
same,Wheat plant response rating,[16]; [22],0
same,Wheat plant response rating,[16]; [24],0
same,Wheat plant response rating,[16]; [25],0
same,"Plant response rating, Wheat",[16]; [26],0
same,"Plant response rating, Wheat",[16]; [27],0
same,Wheat plant response rating,[16]; [28],0
